Results published in US7029857B1, “Processes for obtaining compounds employing SNORF72 receptors” (H. Lundbeck A/S, priority 1999, dated 2006).
No end group written: not given here.

Tests used:
Format in all cases: cell-based
SNORF72 = biological target: T1, SNORF72 (Homo sapiens, UniProt Q9GZQ4, A395T); assay: Intracellular Ca2+ release (FLIPR) in SNORF72-transfected COS-7 cells; settings: SNORF72-transfected COS-7 cells, peptides at 300 nM (FIG. 8)
T1 construct: expressed in transfected cells; host or cells: COS-7 (transient, DEAE-dextran)
T1 sequence (Q9GZQ4 whole entry A395T): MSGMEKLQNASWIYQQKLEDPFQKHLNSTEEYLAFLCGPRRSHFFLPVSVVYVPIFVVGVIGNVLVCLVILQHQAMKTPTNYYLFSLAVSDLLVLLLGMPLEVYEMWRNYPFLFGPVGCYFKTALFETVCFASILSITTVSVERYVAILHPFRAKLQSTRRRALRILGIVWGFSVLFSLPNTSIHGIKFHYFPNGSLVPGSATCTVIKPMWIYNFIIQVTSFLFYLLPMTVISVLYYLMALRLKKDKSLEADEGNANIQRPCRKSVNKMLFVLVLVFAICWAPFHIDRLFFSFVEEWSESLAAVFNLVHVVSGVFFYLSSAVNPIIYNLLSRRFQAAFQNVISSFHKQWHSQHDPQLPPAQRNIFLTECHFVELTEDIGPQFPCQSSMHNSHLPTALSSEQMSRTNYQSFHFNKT

SNORF62 = biological target: T2, SNORF62 (Homo sapiens, UniProt Q9HB89); assay: Intracellular Ca2+ release (FLIPR) in SNORF62-transfected COS-7 cells; set-up: The SNORF62 cDNA codes for a protein of 426 amino acids; expressed in transfected cells; host or cells: COS-7 (transient, DEAE-dextran)
T2 sequence (Q9HB89 1-426): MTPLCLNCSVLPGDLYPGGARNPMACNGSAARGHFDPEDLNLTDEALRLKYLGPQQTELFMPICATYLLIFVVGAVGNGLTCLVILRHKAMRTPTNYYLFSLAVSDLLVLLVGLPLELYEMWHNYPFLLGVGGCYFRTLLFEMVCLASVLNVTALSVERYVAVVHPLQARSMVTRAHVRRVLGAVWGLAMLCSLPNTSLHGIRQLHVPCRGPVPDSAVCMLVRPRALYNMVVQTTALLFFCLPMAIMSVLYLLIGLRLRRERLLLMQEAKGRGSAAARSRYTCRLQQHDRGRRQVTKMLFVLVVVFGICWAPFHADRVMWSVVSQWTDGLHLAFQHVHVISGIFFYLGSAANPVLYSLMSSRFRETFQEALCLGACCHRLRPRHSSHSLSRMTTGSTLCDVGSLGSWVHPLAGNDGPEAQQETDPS

vector-transfected cells = assay: Intracellular Ca2+ release in vector (mock)-transfected COS-7 cells; settings: mock COS-7 cells
Description: A typical protocol for the DEAE-dextran method as applied to COS-7 and HEK293 cells is described as follows. Cells to be used for transfection are split 24 hours prior to the transfection to provide flasks which are 70–80% confluent at the time of transfection. Briefly, 8 μg of receptor DNA plus 8 μg of any additional DNA needed (e.g. Gα protein expression vector, reporter construct, antibiotic resistance marker, mock vector, etc.) are added to 9 ml of complete DMEM plus DEAE-dextran mixture (10 mg/ml in PBS). Cells plated into a T225 flask (sub-confluent) are washed once with PBS and the DNA mixture is added to each flask. The cells are allowed to incubate for 30 minutes at 37° C., 5% CO2. Following the incubation, 36 ml of complete DMEM with 80 μM chloroquine is added to each flask and allowed to incubate an additional 3 hours. The medium is then aspirated and 24 ml of complete medium containing 10% DMSO for exactly 2 minutes and then aspirated. […]
The compounds of interest are diluted in wash buffer (Hank's BSS (without phenol red), 20 mM HEPES, 2.5 mM probenecid) to a 4× final concentration and aliquoted into a clear v-bottom plate (Nunc). […] Compounds are added to the cell plates and responses are measured using the FLIPR™ instrument. The data are then collected and analyzed using the FLIPR™ software and Graphpad Prism. […]

## FRVDEEFQSPFASQSRGYFLFRPRN-NH2 [human NMU-25, FRVDEEFQSPFASQSRGYFLFRPRN—NH2]
SNORF72
  stimulation of intracellular Ca2+ release: stimulated
SNORF62; pertussis toxin 100 ng/ml for 18-20 hours, n=2, data not shown
  Ca2+ release response following pretreatment with pertussis toxin: present
SNORF62; stimulation of Ca2+ release, SNORF62-transfected COS-7 cells, n = 2-7 (Table 1A)
  EC50: 4 ± 1.3 nM
vector-transfected cells
  effect on intracellular Ca2+ release in vector-transfected cells: no significant effect
